Measured values as given in the NIST ThermoML archive (doi:10.1016/j.jct.2017.08.004).

Assay: molar heat capacity at constant pressure
Settings: 101.33 kPa

OC[C@H](O)C(O)[C@@H](O)CO [L-(-)-arabitol]
molar heat capacity at constant pressure [J/K/mol]
Settings	Small sample (50 mg) DSC	relaxation calorimetry
1 K, Crystal	–	0.0009071
1.925 K, Crystal	–	0.00486
2 K, Crystal	–	0.00537
2.126 K, Crystal	–	0.006333
2.35 K, Crystal	–	0.008531
2.603 K, Crystal	–	0.01139
2.89 K, Crystal	–	0.01551
3 K, Crystal	–	0.01737
3.204 K, Crystal	–	0.02118
3.551 K, Crystal	–	0.02864
3.938 K, Crystal	–	0.03916
4 K, Crystal	–	0.04172
4.366 K, Crystal	–	0.05484
4.845 K, Crystal	–	0.07705
5 K, Crystal	–	0.08452
5.374 K, Crystal	–	0.1069
5.962 K, Crystal	–	0.1505
6 K, Crystal	–	0.1535
6.615 K, Crystal	–	0.2138
7 K, Crystal	–	0.26
7.345 K, Crystal	–	0.3087
8 K, Crystal	–	0.4176
8.151 K, Crystal	–	0.4472
9 K, Crystal	–	0.6348
9.046 K, Crystal	–	0.6445
10 K, Crystal	–	0.9169
10.12 K, Crystal	–	0.9515
11.21 K, Crystal	–	1.346
12.43 K, Crystal	–	1.885
13.79 K, Crystal	–	2.589
15 K, Crystal	–	3.316
15.3 K, Crystal	–	3.507
16.99 K, Crystal	–	4.683
18.86 K, Crystal	–	6.145
20 K, Crystal	–	7.063
21 K, Crystal	–	7.93
23.34 K, Crystal	–	10
25 K, Crystal	–	11.59
25.89 K, Crystal	–	12.41
28.74 K, Crystal	–	15.2
30 K, Crystal	–	16.48
31.91 K, Crystal	–	18.4
35 K, Crystal	–	21.5
35.44 K, Crystal	–	21.96
39.34 K, Crystal	–	25.96
40 K, Crystal	–	26.56
43.67 K, Crystal	–	30.28
45 K, Crystal	–	31.57
48.47 K, Crystal	–	34.84
50 K, Crystal	–	36.42
53.79 K, Crystal	–	39.93
55 K, Crystal	–	41.06
59.71 K, Crystal	–	45.44
60 K, Crystal	–	45.6
65 K, Crystal	–	50.22
66.3 K, Crystal	–	51.38
70 K, Crystal	–	54.55
73.59 K, Crystal	–	57.52
75 K, Crystal	–	58.73
80 K, Crystal	–	62.81
81.71 K, Crystal	–	64.34
85 K, Crystal	–	66.8
90 K, Crystal	–	70.7
90.67 K, Crystal	–	71.56
95 K, Crystal	–	74.53
100 K, Crystal	–	78.28
100.62 K, Crystal	–	78.32
110 K, Crystal	–	85.55
110.77 K, Crystal	–	85.86
120 K, Crystal	–	92.52
120.75 K, Crystal	–	93.29
130 K, Crystal	–	99.22
130.83 K, Crystal	–	99.89
140 K, Crystal	–	105.69
141 K, Crystal	–	106.35
150 K, Crystal	–	111.98
151.08 K, Crystal	–	112.59
160 K, Crystal	–	118.13
161.19 K, Crystal	–	118.71
170 K, Crystal	–	124.19
171.26 K, Crystal	–	124.81
180 K, Crystal	–	130.18
181.32 K, Crystal	–	131.15
188.15 K, Crystal	129.04	–
189.15 K, Crystal	130.57	–
190 K, Crystal	–	136.16
190.15 K, Crystal	131.98	–
191.15 K, Crystal	132.97	–
191.4 K, Crystal	–	137.23
192.15 K, Crystal	133.65	–
193.15 K, Crystal	134.27	–
194.15 K, Crystal	135.12	–
195.15 K, Crystal	135.91	–
196.15 K, Crystal	136.66	–
197.15 K, Crystal	137.42	–
198.15 K, Crystal	138.16	–
199.15 K, Crystal	138.8	–
200 K, Crystal	–	142.15
200.15 K, Crystal	139.49	–
201.15 K, Crystal	140.3	–
201.57 K, Crystal	–	142.67
202.15 K, Crystal	141.06	–
203.15 K, Crystal	141.64	–
204.15 K, Crystal	142.39	–
205.15 K, Crystal	143.02	–
206.15 K, Crystal	143.74	–
207.15 K, Crystal	144.43	–
208.15 K, Crystal	145.06	–
209.15 K, Crystal	145.72	–
210 K, Crystal	–	148.19
210.15 K, Crystal	146.38	–
211.15 K, Crystal	147.05	–
211.68 K, Crystal	–	149.03
212.15 K, Crystal	147.72	–
213.15 K, Crystal	148.33	–
214.15 K, Crystal	149.06	–
215.15 K, Crystal	149.6	–
216.15 K, Crystal	150.38	–
217.15 K, Crystal	151.13	–
218.15 K, Crystal	152.05	–
219.15 K, Crystal	152.76	–
220 K, Crystal	–	154.3
220.15 K, Crystal	153.39	–
221.15 K, Crystal	153.99	–
221.77 K, Crystal	–	155.91
222.15 K, Crystal	154.72	–
223.15 K, Crystal	155.35	–
224.15 K, Crystal	155.94	–
225.15 K, Crystal	156.64	–
226.15 K, Crystal	157.32	–
227.15 K, Crystal	157.87	–
228.15 K, Crystal	158.58	–
229.15 K, Crystal	159.08	–
230 K, Crystal	–	160.49
230.15 K, Crystal	159.71	–
231.15 K, Crystal	160.4	–
231.87 K, Crystal	–	161.72
232.15 K, Crystal	160.98	–
233.15 K, Crystal	161.67	–
234.15 K, Crystal	162.2	–
235.15 K, Crystal	162.87	–
236.15 K, Crystal	163.51	–
237.15 K, Crystal	164.14	–
238.15 K, Crystal	164.86	–
239.15 K, Crystal	165.4	–
240 K, Crystal	–	166.8
240.15 K, Crystal	166.04	–
241.15 K, Crystal	166.73	–
241.87 K, Crystal	–	168.05
242.15 K, Crystal	167.44	–
243.15 K, Crystal	168.16	–
244.15 K, Crystal	168.75	–
245.15 K, Crystal	169.35	–
246.15 K, Crystal	169.88	–
247.15 K, Crystal	170.55	–
248.15 K, Crystal	171.06	–
249.15 K, Crystal	171.85	–
250 K, Crystal	–	173.24
250.15 K, Crystal	172.59	–
251.15 K, Crystal	173.21	–
251.96 K, Crystal	–	174.6
252.15 K, Crystal	173.86	–
253.15 K, Crystal	174.57	–
254.15 K, Crystal	175.18	–
255.15 K, Crystal	176.03	–
256.15 K, Crystal	176.9	–
257.15 K, Crystal	177.61	–
258.15 K, Crystal	178.4	–
259.15 K, Crystal	179.26	–
260 K, Crystal	–	179.82
260.15 K, Crystal	180.04	–
261.15 K, Crystal	180.97	–
262.07 K, Crystal	–	180.97
262.15 K, Crystal	181.78	–
263.15 K, Crystal	182.59	–
264.15 K, Crystal	183.52	–
265.15 K, Crystal	184.23	–
266.15 K, Crystal	184.83	–
267.15 K, Crystal	185.69	–
268.15 K, Crystal	186.57	–
269.15 K, Crystal	187.58	–
270 K, Crystal	–	186.56
270.15 K, Crystal	188.37	–
271.15 K, Crystal	189.06	–
272.13 K, Crystal	–	188.16
272.15 K, Crystal	189.78	–
273.15 K, Crystal	190.61	188.71
274.15 K, Crystal	191.19	–
275.15 K, Crystal	191.83	–
276.15 K, Crystal	192.48	–
277.15 K, Crystal	193.16	–
278.15 K, Crystal	193.84	–
279.15 K, Crystal	194.6	–
280 K, Crystal	–	193.46
280.15 K, Crystal	195.16	–
281.15 K, Crystal	195.85	–
282.15 K, Crystal	196.47	–
282.16 K, Crystal	–	194.74
283.15 K, Crystal	197.03	–
284.15 K, Crystal	197.67	–
285.15 K, Crystal	198.35	–
286.15 K, Crystal	198.9	–
287.15 K, Crystal	199.37	–
288.15 K, Crystal	200.05	–
289.15 K, Crystal	200.75	–
290 K, Crystal	–	200.53
290.15 K, Crystal	201.49	–
291.15 K, Crystal	202.11	–
292.15 K, Crystal	202.64	–
292.27 K, Crystal	–	201.73
293.15 K, Crystal	203.3	–
294.15 K, Crystal	203.94	–
295.15 K, Crystal	204.77	–
296.15 K, Crystal	205.37	–
297.15 K, Crystal	206.12	–
298.15 K, Crystal	206.77	206.44
299.15 K, Crystal	207.42	–
300 K, Crystal	–	207.8
300.15 K, Crystal	208.27	–
301.15 K, Crystal	209.11	–
302.15 K, Crystal	209.85	–
302.3 K, Crystal	–	209.95
303.15 K, Crystal	210.71	–
304.15 K, Crystal	211.4	–
305 K, Crystal	212.36	–
305.15 K, Crystal	212.38	–
306.15 K, Crystal	213.15	–
307.15 K, Crystal	214.11	–
308.15 K, Crystal	215.16	–
309.15 K, Crystal	216.11	–
310 K, Crystal	217.12	–
310.15 K, Crystal	217.05	–
311.15 K, Crystal	218.22	–
312.15 K, Crystal	219.18	–
313.15 K, Crystal	220.1	–
314.15 K, Crystal	221.04	–
315 K, Crystal	221.96	–
315.15 K, Crystal	222.13	–
316.15 K, Crystal	223.18	–
317.15 K, Crystal	224.21	–
318.15 K, Crystal	225.16	–
319.15 K, Crystal	226.14	–
320 K, Crystal	226.85	–
320.15 K, Crystal	227.12	–
321.15 K, Crystal	228.27	–
322.15 K, Crystal	229.22	–
323.15 K, Crystal	230.47	–
324.15 K, Crystal	231.33	–
325 K, Crystal	231.9	–
325.15 K, Crystal	232.46	–
326.15 K, Crystal	233.49	–
327.15 K, Crystal	234.58	–
328.15 K, Crystal	235.6	–
329.15 K, Crystal	236.61	–
330 K, Crystal	237.4	–
330.15 K, Crystal	237.74	–
331.15 K, Crystal	238.74	–
332.15 K, Crystal	239.92	–
333.15 K, Crystal	241.19	–
335 K, Crystal	243.8	–
340 K, Crystal	251.69	–
345 K, Crystal	261.85	–
387.05 K, Liquid	440.32	–
387.15 K, Liquid	440.19	–
388.15 K, Liquid	440.32	–
389.15 K, Liquid	440.39	–
390 K, Liquid	440.74	–
390.15 K, Liquid	440.65	–
391.15 K, Liquid	440.67	–
392.15 K, Liquid	440.92	–
393.15 K, Liquid	441.37	–
394.15 K, Liquid	441.72	–
395 K, Liquid	442.06	–
395.15 K, Liquid	441.9	–
396.15 K, Liquid	442.46	–
397.15 K, Liquid	443.18	–
398.15 K, Liquid	443.38	–
399.15 K, Liquid	443.7	–
400 K, Liquid	443.76	–
400.15 K, Liquid	444.18	–
401.15 K, Liquid	444.55	–
402.15 K, Liquid	444.8	–
403.15 K, Liquid	445.3	–
404.15 K, Liquid	445.48	–
405 K, Liquid	445.85	–
405.15 K, Liquid	445.82	–
406.15 K, Liquid	446.12	–
407.15 K, Liquid	446.57	–
408.15 K, Liquid	447.22	–
409.15 K, Liquid	447.57	–
410 K, Liquid	448.32	–
410.15 K, Liquid	448.06	–
411.15 K, Liquid	448.75	–
412.15 K, Liquid	449.48	–
413.15 K, Liquid	450.17	–
414.15 K, Liquid	450.82	–
415 K, Liquid	451.18	–
415.15 K, Liquid	451.25	–
416.15 K, Liquid	451.74	–
417.15 K, Liquid	452.58	–
418.15 K, Liquid	453.6	–
